# Assay results from PubChem BioAssay (NCI).
#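 Growth conditions: 96-well plates. Treatment: test compound, 48 hours, 5 concentrations. Analysis: linear interpolation between bracketing concentrations; unreached endpoints set to highest concentration. At the TGI there is no net growth.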
# Columns and labels:
# Assay in all cases: NCI tumour cell line growth inhibition, 48 h
# 786-0 renal = tested on: 786-0 renal
# A549 NSCLC = tested on: A549 NSCLC
# ACHN renal = tested on: ACHN renal
# BT-549 breast = tested on: BT-549 breast
# CCRF-CEM leukemia = tested on: CCRF-CEM leukemia
# COLO 205 colon = tested on: COLO 205 colon
# DU-145 prostate = tested on: DU-145 prostate
# EKVX NSCLC = tested on: EKVX NSCLC
# HCC-2998 colon = tested on: HCC-2998 colon
# HCT-116 colon = tested on: HCT-116 colon
# HCT-15 colon = tested on: HCT-15 colon
# HL-60(TB) leukemia = tested on: HL-60(TB) leukemia
# HOP-62 NSCLC = tested on: HOP-62 NSCLC
# HOP-92 NSCLC = tested on: HOP-92 NSCLC
# HS 578T breast = tested on: HS 578T breast
# HT29 colon = tested on: HT29 colon
# IGROV1 ovarian = tested on: IGROV1 ovarian
# K-562 leukemia = tested on: K-562 leukemia
# KM12 colon = tested on: KM12 colon
# LOX IMVI melanoma = tested on: LOX IMVI melanoma
# M14 melanoma = tested on: M14 melanoma
# MALME-3M melanoma = tested on: MALME-3M melanoma
# MCF7 breast = tested on: MCF7 breast
# MDA-MB-231 breast = tested on: MDA-MB-231 breast
# MDA-MB-435 = tested on: MDA-MB-435
# MDA-N = tested on: MDA-N
# MOLT-4 leukemia = tested on: MOLT-4 leukemia
# NCI-H226 lung = tested on: NCI-H226 lung
# NCI-H23 lung = tested on: NCI-H23 lung
# NCI-H460 lung = tested on: NCI-H460 lung
# NCI-H522 lung = tested on: NCI-H522 lung
# NCI/ADR-RES ovarian = tested on: NCI/ADR-RES ovarian
# OVCAR-3 ovarian = tested on: OVCAR-3 ovarian
# OVCAR-4 ovarian = tested on: OVCAR-4 ovarian
# OVCAR-5 ovarian = tested on: OVCAR-5 ovarian
# OVCAR-8 ovarian = tested on: OVCAR-8 ovarian
# PC-3 prostate = tested on: PC-3 prostate
# RPMI-8226 leukemia = tested on: RPMI-8226 leukemia
# RXF 393 renal = tested on: RXF 393 renal
# SF-268 CNS = tested on: SF-268 CNS
# SF-295 CNS = tested on: SF-295 CNS
# SF-539 CNS = tested on: SF-539 CNS
# SK-MEL-28 melanoma = tested on: SK-MEL-28 melanoma
# SK-MEL-5 melanoma = tested on: SK-MEL-5 melanoma
# SK-OV-3 ovarian = tested on: SK-OV-3 ovarian
# SN12C renal = tested on: SN12C renal
# SNB-19 CNS = tested on: SNB-19 CNS
# SNB-75 CNS = tested on: SNB-75 CNS
# SR leukemia = tested on: SR leukemia
# SW-620 colon = tested on: SW-620 colon
# T-47D breast = tested on: T-47D breast
# TK-10 renal = tested on: TK-10 renal
# U251 CNS = tested on: U251 CNS
# UACC-257 melanoma = tested on: UACC-257 melanoma
# UACC-62 melanoma = tested on: UACC-62 melanoma
# UO-31 renal = tested on: UO-31 renal
# A498 renal = tested on: A498 renal
# CAKI-1 renal = tested on: CAKI-1 renal
# SK-MEL-2 melanoma = tested on: SK-MEL-2 melanoma
compound,measurement,setting,value
O=NN1CCNC1Cc1ccccc1 (configuration not stated),TGI,786-0 renal,> 100 µM
same,TGI,A549 NSCLC,> 100 µM
same,TGI,ACHN renal,> 100 µM
same,TGI,BT-549 breast,> 100 µM
same,TGI,CCRF-CEM leukemia,> 100 µM
same,TGI,COLO 205 colon,> 100 µM
same,TGI,DU-145 prostate,> 100 µM
same,TGI,EKVX NSCLC,> 100 µM
same,TGI,HCC-2998 colon,> 100 µM
same,TGI,HCT-116 colon,> 100 µM
same,TGI,HCT-15 colon,> 100 µM
same,TGI,HL-60(TB) leukemia,> 100 µM
same,TGI,HOP-62 NSCLC,> 100 µM
same,TGI,HOP-92 NSCLC,> 100 µM
same,TGI,HS 578T breast,> 100 µM
same,TGI,HT29 colon,> 100 µM
same,TGI,IGROV1 ovarian,> 100 µM
same,TGI,K-562 leukemia,> 100 µM
same,TGI,KM12 colon,> 100 µM
same,TGI,LOX IMVI melanoma,> 100 µM
same,TGI,M14 melanoma,> 100 µM
same,TGI,MALME-3M melanoma,> 100 µM
same,TGI,MCF7 breast,> 100 µM
same,TGI,MDA-MB-231 breast,> 100 µM
same,TGI,MDA-MB-435,> 100 µM
same,TGI,MDA-N,> 100 µM
same,TGI,MOLT-4 leukemia,> 100 µM
same,TGI,NCI-H226 lung,> 100 µM
same,TGI,NCI-H23 lung,> 100 µM
same,TGI,NCI-H460 lung,> 100 µM
same,TGI,NCI-H522 lung,> 100 µM
same,TGI,NCI/ADR-RES ovarian,> 100 µM
same,TGI,OVCAR-3 ovarian,> 100 µM
same,TGI,OVCAR-4 ovarian,> 100 µM
same,TGI,OVCAR-5 ovarian,> 100 µM
same,TGI,OVCAR-8 ovarian,> 100 µM
same,TGI,PC-3 prostate,> 100 µM
same,TGI,RPMI-8226 leukemia,> 100 µM
same,TGI,RXF 393 renal,> 100 µM
same,TGI,SF-268 CNS,> 100 µM
same,TGI,SF-295 CNS,> 100 µM
same,TGI,SF-539 CNS,> 100 µM
same,TGI,SK-MEL-28 melanoma,> 100 µM
same,TGI,SK-MEL-5 melanoma,> 100 µM
same,TGI,SK-OV-3 ovarian,> 100 µM
same,TGI,SN12C renal,> 100 µM
same,TGI,SNB-19 CNS,> 100 µM
same,TGI,SNB-75 CNS,72.6 µM
same,TGI,SR leukemia,> 100 µM
same,TGI,SW-620 colon,> 100 µM
same,TGI,T-47D breast,> 100 µM
same,TGI,TK-10 renal,> 100 µM
same,TGI,U251 CNS,> 100 µM
same,TGI,UACC-257 melanoma,> 100 µM
same,TGI,UACC-62 melanoma,> 100 µM
same,TGI,UO-31 renal,> 100 µM
COC(=O)/C=C\[C@H]1[C@H](C)N1S(=O)(=O)c1ccc(C)cc1 (some centres not stated),TGI,786-0 renal,> 100 µM
same,TGI,A498 renal,> 100 µM
same,TGI,A549 NSCLC,> 100 µM
same,TGI,ACHN renal,> 100 µM
same,TGI,BT-549 breast,> 100 µM
same,TGI,CAKI-1 renal,> 100 µM
same,TGI,CCRF-CEM leukemia,> 100 µM
same,TGI,COLO 205 colon,> 100 µM
same,TGI,DU-145 prostate,> 100 µM
same,TGI,EKVX NSCLC,> 100 µM
same,TGI,HCC-2998 colon,> 100 µM
same,TGI,HCT-116 colon,> 100 µM
same,TGI,HCT-15 colon,> 100 µM
same,TGI,HL-60(TB) leukemia,> 100 µM
same,TGI,HOP-62 NSCLC,> 100 µM
same,TGI,HS 578T breast,> 100 µM
same,TGI,HT29 colon,> 100 µM
same,TGI,IGROV1 ovarian,> 100 µM
same,TGI,K-562 leukemia,> 100 µM
same,TGI,KM12 colon,> 100 µM
same,TGI,LOX IMVI melanoma,> 100 µM
same,TGI,M14 melanoma,> 100 µM
same,TGI,MALME-3M melanoma,> 100 µM
same,TGI,MCF7 breast,> 100 µM
same,TGI,MDA-MB-231 breast,> 100 µM
same,TGI,MDA-MB-435,> 100 µM
same,TGI,MDA-N,> 100 µM
same,TGI,MOLT-4 leukemia,> 100 µM
same,TGI,NCI-H226 lung,> 100 µM
same,TGI,NCI-H23 lung,> 100 µM
same,TGI,NCI-H460 lung,> 100 µM
same,TGI,NCI-H522 lung,46 µM
same,TGI,NCI/ADR-RES ovarian,> 100 µM
same,TGI,OVCAR-3 ovarian,> 100 µM
same,TGI,OVCAR-4 ovarian,> 100 µM
same,TGI,OVCAR-5 ovarian,> 100 µM
same,TGI,OVCAR-8 ovarian,> 100 µM
same,TGI,PC-3 prostate,> 100 µM
same,TGI,RPMI-8226 leukemia,> 100 µM
same,TGI,RXF 393 renal,> 100 µM
same,TGI,SF-268 CNS,> 100 µM
same,TGI,SF-295 CNS,> 100 µM
same,TGI,SF-539 CNS,> 100 µM
same,TGI,SK-MEL-2 melanoma,> 100 µM
same,TGI,SK-MEL-28 melanoma,> 100 µM
same,TGI,SK-MEL-5 melanoma,> 100 µM
same,TGI,SK-OV-3 ovarian,> 100 µM
same,TGI,SN12C renal,> 100 µM
same,TGI,SNB-19 CNS,> 100 µM
same,TGI,SR leukemia,> 100 µM
same,TGI,SW-620 colon,> 100 µM
same,TGI,T-47D breast,> 100 µM
same,TGI,TK-10 renal,> 100 µM
same,TGI,U251 CNS,> 100 µM
same,TGI,UACC-257 melanoma,> 100 µM
same,TGI,UACC-62 melanoma,> 100 µM
C=C(CCOC)CCC1CCCCC/C1=N\N(C)C (configuration not stated),TGI,786-0 renal,> 100 µM
same,TGI,A498 renal,> 100 µM
same,TGI,A549 NSCLC,> 100 µM
same,TGI,ACHN renal,> 100 µM
same,TGI,BT-549 breast,> 100 µM
same,TGI,CAKI-1 renal,> 100 µM
same,TGI,CCRF-CEM leukemia,> 100 µM
same,TGI,COLO 205 colon,> 100 µM
same,TGI,DU-145 prostate,> 100 µM
same,TGI,EKVX NSCLC,> 100 µM
same,TGI,HCC-2998 colon,> 100 µM
same,TGI,HCT-116 colon,> 100 µM
same,TGI,HCT-15 colon,> 100 µM
same,TGI,HL-60(TB) leukemia,> 100 µM
same,TGI,HOP-62 NSCLC,> 100 µM
same,TGI,HS 578T breast,> 100 µM
same,TGI,HT29 colon,> 100 µM
same,TGI,IGROV1 ovarian,> 100 µM
same,TGI,K-562 leukemia,> 100 µM
same,TGI,KM12 colon,> 100 µM
same,TGI,LOX IMVI melanoma,> 100 µM
same,TGI,M14 melanoma,> 100 µM
same,TGI,MALME-3M melanoma,> 100 µM
same,TGI,MCF7 breast,> 100 µM
same,TGI,MDA-MB-231 breast,> 100 µM
same,TGI,MDA-MB-435,> 100 µM
same,TGI,MDA-N,> 100 µM
same,TGI,MOLT-4 leukemia,> 100 µM
same,TGI,NCI-H226 lung,> 100 µM
same,TGI,NCI-H23 lung,> 100 µM
same,TGI,NCI-H460 lung,> 100 µM
same,TGI,NCI-H522 lung,> 100 µM
same,TGI,NCI/ADR-RES ovarian,> 100 µM
same,TGI,OVCAR-3 ovarian,> 100 µM
same,TGI,OVCAR-4 ovarian,> 100 µM
same,TGI,OVCAR-5 ovarian,> 100 µM
same,TGI,OVCAR-8 ovarian,> 100 µM
same,TGI,PC-3 prostate,> 100 µM
same,TGI,RPMI-8226 leukemia,> 100 µM
same,TGI,RXF 393 renal,> 100 µM
same,TGI,SF-268 CNS,> 100 µM
same,TGI,SF-295 CNS,> 100 µM
same,TGI,SK-MEL-2 melanoma,> 100 µM
same,TGI,SK-MEL-28 melanoma,> 100 µM
same,TGI,SK-MEL-5 melanoma,> 100 µM
same,TGI,SK-OV-3 ovarian,> 100 µM
same,TGI,SN12C renal,> 100 µM
same,TGI,SNB-19 CNS,> 100 µM
same,TGI,SNB-75 CNS,> 100 µM
same,TGI,SR leukemia,> 100 µM
same,TGI,SW-620 colon,> 100 µM
same,TGI,T-47D breast,> 100 µM
same,TGI,U251 CNS,> 100 µM
same,TGI,UACC-62 melanoma,> 100 µM
same,TGI,UO-31 renal,> 100 µM
